We go through five molecules from US20230391732A1, “MULTI-EFFICACY PYRAZINE COMPOUND, PREPARATION METHOD AND USE THEREOF” (SHENZHEN OLIVE BIOPHARMACEUTICALS CO., LTD, priority 2020, published 2023).

In experiment [1] the test system is db/db mice. Description: Glucose and lipid metabolism in db/db mice, 56 d administration. The format is in vivo. The note with it: TMP 5.0 mg/kg, OLB-3 13.32 mg/kg, mean±SEM, n=6. How it is done: Mice of a normal control group (WT) and model mice were given normal saline 10 ml/kg/d, Losartan 15 mg/kg/d, TMP (5.0 mg/kg, 0.037 mmol/kg), and OLB-3 (13.32 mg/kg, 0.037 mmol/kg), at a volume of 10 mL/kg, once/d, for continuous administration of 56 d, blood lipids and blood glucose related indexes were measured after blood collection. Data were presented as mean±SEM; n=6 per group.

For experiment [2], the system named is ALS (SOD-G93A) mice. Description: Limb grip force test in ALS transgenic mice. The note with it: riluzole 5 mg/kg, FIG. 7. The format is in vivo. As for the experimental part: The limb grip force test is used directly to assess muscle strength of mice and the incidence of mice. […] After the start of administration, the grip force of the mice was tested every two weeks, and the measurement was repeated three times for each mouse, and the maximum value among the three results was taken as a maximum grip force of the mice. […] Data were presented as mean±SEM; n=10 per group.

Experiment [3] deals with ALS (SOD-G93A) mice. The experiment is described as follows: Pole climbing test in ALS transgenic mice. The format is in vivo. The following applies: riluzole 5 mg/kg, FIG. 6. The source says:
The pole climbing test is generally used to evaluate a movement coordination ability, movement delay of the limbs in mice, and muscle strength. A homemade wooden pole about 50 cm long and about 1 cm in diameter was wrapped with medical gauze to increase friction of the wooden pole. The wooden pole was put vertically on a horizontal table, the mouse tail was grabbed such that the mouse head was facing down, with limbs grabbing a top of the pole; the timer was started after releasing the mouse tail, and it was ensured that the mouse crawled downward without external force, and the time was recorded for the mouse to climb from the top of the pole to a bottom platform (a standard was that mouse hind limbs were landed on the ground). […] The average value of the mouse's three pole climbing times was calculated as the final pole climbing time. […] Data were presented as mean±SEM; n=10 per group.

Experiment [4] concerns db/db mice. Description: Biochemical and metabolic indicators in db/db mice, 56 d administration. Type of experiment: in vivo. The following applies: Losartan 15 mg/kg/d, TMP 5.0 mg/kg, OLB-3 13.32 mg/kg, n=6; for Urine albumin/creatinine: once/d for 56 d, mean, SEM.
Experiment [5] has as its system SH-SY5Y neuroblastoma cells. Description: LPS-induced inflammatory factors in differentiated SH-SY5Y cells (ELISA). The format is cell-based. The note with it: 24 h, mean±SEM, n=8; for TNF-alpha: supernatant. How it is done: (§1) The SH-SY5Y cells were recovered and incubated, and the cells in the logarithmic growth phase were taken. After 24 h of incubation, SH-SY5Y neuroblastoma cells were treated with 1 μM all-trans retinoic acid to induce differentiation, and then inoculated into a 6-well culture dish for 24 h of incubation. Then, 0.2 μM (L) or 1 μM (H) OLB-3 and 1 μg/mL LPS were added to the medium, and treated for 24 h, a supernatant medium was aspirated, and changes of inflammatory factors and oxidative stress-related proteins were measured by an ELISA kit. Data were presented as mean±SEM; n=8 per group.
On the technique in general: ELISA stands for enzyme-linked immunosorbent assay.

The subject of experiment [6] is 5*FAD mice. The experiment is described as follows: Y-maze in 5*FAD mice. Type of experiment: in vivo. The note with it: 6-month-old 5*FAD mice treated 3 months; 2.63 and 13.32 mg/kg; FIG. 4. How it is done: (§2) 6-month-old 5*FAD mice were treated with OLB-3 for 3 months, and novel object recognition and Y-maze behavior were measured. Novel object recognition: during a training phase, the mice were exposed in a chamber to become familiar with two identical objects (A+A) for 5 min; during a testing phase, one of the familiar objects was replaced with another novel object (A+B), and the mice were put back in the chamber to detect probe objects for 5 min, while recording video and tracking the mice in real time. Probing was defined as a mouse with its nose pointed towards the object, sniffing or touching with its nose, and a distance of ≤2 cm was recorded from the nose to the object. A discriminant index (DI) is used to explore each object, and a calculation method thereof was as follows: (exploration time for new object−exploration time for old object)/(exploration time for new object+exploration time for old object)*100. Y-maze: an animal was placed at an end of one arm, and the sequence of the animals entering into each arm was recorded within 10 min. […] The 5*FAD mice were treated with low dosage (2.63 mg/kg, 0.007 mmol/kg, the same below) and high dosage (13.32 mg/kg, 0.037 mmol/kg, the same below) of the OLB-3 separately. Data were presented as mean±SEM; n=9-10 per group.

In another experiment the test system is SH-SY5Y cells. The experiment is described as follows: MTT assay of SH-SY5Y cell death caused by OGD. Type of experiment: cell-based. The following applies: 4 h OGD, FIG. 1. As for the experimental part: A neuroprotective effect of tetramethylpyrazine (TMP) and derivatives thereof was evaluated by MTT assay. Cells were incubated, cells in the logarithmic growth phase were collected, a concentration of a cell suspension was adjusted, an MTT-containing medium was added after dosing treatment and 4 h of incubation with OGD, incubation was conducted for 4 h, the medium in the wells was carefully removed, and 150 μl of dimethyl sulfoxide (DMSO) was added to each well, followed by shaking at a low speed for 10 min on a shaker to fully dissolve crystals, and an absorbance value of each well was measured at an OD (absorbance) value of 490 nm of an enzyme-linked immunosorbent assay instrument (at the same time, a zero adjustment well (medium, MTT, DMSO) and a control well (cells, a drug dissolution medium with the same concentration, medium, MTT, DMSO) were set). Data were presented as mean±SEM; n=8 per group.
(In general: Tetrazolium assays rely on reduction of a dye to a coloured formazan, in cell work by metabolically active cells.)

Experiment [7] concerns 6-OHDA Parkinson's disease rats. The experiment is described as follows: APO-induced rotations in 6-OHDA Parkinson's disease rats. The following applies: APO-induced 6-OHDA rats, 2 weeks of treatment; levodopa 25 mg/kg; FIG. 5. Type of experiment: in vivo. The source says:
There was no rotations in a sham-operated group, and there was no significant difference between the groups injected with 6-OHDA, with about 180 rotations. […] Data were presented as mean±SEM; n=10 per group.

Experiment [8] concerns SH-SY5Y neuroblastoma cells. The experiment is described as follows: LPS-induced oxidative stress-related proteins in differentiated SH-SY5Y cells (ELISA). The format is cell-based. The following applies: 24 h, mean±SEM, n=8. How it is done:
as §1

In experiment [9] the test system is 5*FAD mice. The experiment is described as follows: Novel object recognition in 5*FAD mice. Type of experiment: in vivo. The note with it: 6-month-old 5*FAD mice treated 3 months; 2.63 and 13.32 mg/kg; FIG. 3. How it is done:
as §2

Experiment [10] relates to db/db mice. The experiment is described as follows: Urinary protein level in db/db mice. Type of experiment: in vivo. The following applies: OLB-3 13.32 mg/kg once/d for 56 d, FIG. 2. As for the experimental part:
Mice of a normal control group (WT) and model mice were given normal saline 10 ml/kg/d, Losartan 10 mg/kg/d, TMP (5.0 mg/kg, 0.037 mmol/kg), and OLB-3 (13.32 mg/kg, 0.037 mmol/kg), at a volume of 10 m/kg, once/d, for continuous administration of 56 d, urine protein levels were measured after urine collection. Data were presented as mean±SEM; n=6 per group.

Setting [11] is: (H) high concentration (OLB-3 1 μM) + 1 μg/mL LPS.
Setting [12] is: (L) low concentration (OLB-3 0.2 μM) + 1 μg/mL LPS.
Where [13] appears, read: Table 3, once/d for 56 d, Losartan 15 mg/kg/d.
[14] abbreviates: once/d for 56 d, Losartan 15 mg/kg/d.

Turning to `CN(C)C(=N)N=C(N)N` [metformin, reference compound], in the experiment with db/db mice [1] (once/d for 56 d), the Glycated hemoglobin is given as 628.52 ± 50.59(c) nmol/L, the High-density lipoprotein cholesterol is reported as 2.19 ± 0.12(a) mM and the Low-density lipoprotein cholesterol was 0.59 ± 0.02(c) mM.

Take `Nc1nc2ccc(OC(F)(F)F)cc2s1` [riluzole, reference compound]: the limb grip force result with ALS (SOD-G93A) mice [2] is listed as “effectively increase the limb force of mice”. Also, the “pole climbing time / bradykinesia” value in the experiment on ALS (SOD-G93A) mice [3] was “significantly improve the symptoms of bradykinesia”.

As to `Cc1nc(C)c(C)nc1C` [TMP, Tetramethylpyrazine, reference compound], in the experiment on db/db mice [4], the Urine albumin/creatinine worked out at 661.82 ± 89.54 mg/g.

Take `Cc1nc(C)c(C(=O)OCOC(=O)OCCc2ccc(O)cc2)nc1C` [OLB-3]: in the experiment on ALS (SOD-G93A) mice [2], the limb grip force entry is listed as “effectively increase the limb force of mice”. Also, in [5] (setting [11]), the TNF-alpha was 4.19 ± 0.77(c) pg/ml, the IL1 is reported as 4.27 ± 0.58(c) pg/ml and the IL6 is given as 5.13 ± 0.63(c) pg/ml. In experiment [5] (setting [12]), the TNF-alpha is 7.34 ± 1.38(c) pg/ml, the IL1 was 8.76 ± 1.56(c) pg/ml and the IL6 was 9.34 ± 1.67(b) pg/ml. In addition, in the experiment on 5*FAD mice [6], the “time ratio in a novel different arm” value was “significantly increase a time ratio in a novel different arm”. Also, in the experiment on db/db mice [4] (Table 4, once/d for 56 d), the Creatinine is 42.42 ± 2.73(c) μmol/L and the Urea is reported as 7.42 ± 0.31(c) mmol/L. For the same molecule, the Urine albumin/creatinine in the experiment on db/db mice [4] is reported as 443.82 ± 78.34(c) mg/g. Besides, the “death of SH-SY5Y cells caused by OGD (MTT)” value with SH-SY5Y cells is reported as “significantly reduce the death of SH-SY5Y cells caused by OGD”. In addition, the “pole climbing time / bradykinesia” value with ALS (SOD-G93A) mice [3] is “significantly improve the symptoms of bradykinesia”. In experiment [7], the number of rotations result was “effectively reduce the number of rotations”. Also, in experiment [8] (setting [11]), the GSH-Px was 17.51 ± 1.17(c) umol/mg, the MDA is given as 6.71 ± 0.51(c) nmol/mg and the SOD is recorded as 18.27 ± 1.02(c) nU/ml. Moreover, in experiment [8] (setting [12]), the GSH-Px is 13.21 ± 1.92(c) umol/mg, the MDA is given as 11.10 ± 0.78(c) nmol/mg and the SOD was 14.96 ± 1.32(c) nU/ml. For the same molecule, in the experiment with db/db mice [1] (setting [13]), the Creatinine was 42.42 ± 2.73(c) μmol/L and the Urea was 7.42 ± 0.31(c) mmol/L. For the same molecule, in the experiment with db/db mice [1] (setting [14]), the Total cholesterol is listed as 4.15 ± 0.18(c) mM and the Triglyceride is listed as 9.61 ± 0.57(c) mg/dL. Further, in the experiment on db/db mice [1] (once/d for 56 d), the Glucose determination is listed as 17.26 ± 1.42(c) mM, the Glycated hemoglobin was 517.83 ± 47.26(c) nmol/L, the High-density lipoprotein cholesterol is given as 1.62 ± 0.11(c) mM and the Low-density lipoprotein cholesterol was 0.52 ± 0.02(c) mM. In addition, the “time ratio to explore novel objects” value with 5*FAD mice [9] was “significantly increase a time ratio to explore novel objects”. Further, the urinary protein levels result in the experiment with db/db mice [10] was “significantly reduced urinary protein levels”.

Consider `CCCCc1nc(Cl)c(CO)n1Cc1ccc(-c2ccccc2-c2nn[nH]n2)cc1` [Losartan, reference compound], for which the Creatinine in the experiment with db/db mice [4] (Table 4, once/d for 56 d) was 42.12 ± 1.72(c) μmol/L; with db/db mice [1] (setting [13]), 42.12 ± 1.72(c) μmol/L. Also, the Urine albumin/creatinine with db/db mice [4] is given as 582.74 ± 97.82(c) mg/g. The Total cholesterol with db/db mice [1] (setting [14]) is listed as 6.76 ± 0.46(c) mM.
